# Columns and labels:
# [1] = test system: Human Promyelocytic Leukaemia HL-60 Cells; assay: Cyto-fluorometric cell cycle analysis, HL-60; type: cell-based; conditions: for APOPTOSIS / G0/G1 / G2 + M / S: 3 days; for G0/G1 / G2 + M / S: percentage of cell cycle phase
# Description: To evaluate the effect of the compound according to the invention, on various phases of the cell cycle, cyto-fluorometric cell cycle analyses were performed.
# HL60 or NB4 cells were seeded onto plates at a density of 150.000 cells/ml in RPMI 1640 medium containing 10% FCS, the test compound (ST 1926) was added, […], in the presence or absence of sub-optimal doses of ATRA (5-10 nM for NB4 and 0.5 μM for HL60) in the dark and placed in an incubator for 3 days without changing the culture medium.
# On the third day of treatment 500.000 cells were sampled, centrifuged at 180×g for 5 minutes, washed twice in calcium and magnesium free PBS. The cells (1×10^6/ml of fixative) were fixed for at least 1 hour in a fixation mixture comprised of acetone/methanol 1:4 v/v maintained at −20° C. and 50% of calcium and magnesium free PBS; then the cells were centrifuged, washed in calcium and magnesium free PBS, and again centrifuged and washed. The cellular precipitate was incubated for 30 minutes in the dark at room temperature with 200 μl of […] (100 μg/ml) and 200 μl of RNAse (150 KU/mg).
# The samples with filtered through nylon filters (60-80 μm diameter) and analysed by cyto-fluorimeter FACScan (Becton Dickinson), acquiring 20000 events/sample, at an excitation wavelength of 488 nm and emission wavelength of 620 nm. The analysis of the percentages of the cell cycle phases was performed using a dedicated software package, Modfit v. 2.0 (Becton Dickinson).
# [2] = test system: 3LL murine Lewis lung carcinoma; assay: Antitumoral activity in murine Lewis lung carcinoma model 3LL; type: in vivo, C57BL/6J mice; conditions: 10 mg/kg po, qdx5x3w
# Description: Murine pulmonary adenocarcinoma Madison 109 cells (M109) were maintained by s.c. passage of tumor fragments. The day of inoculation, the cell suspension was injected i.m. in the rear left limb of a 20 g male BALB/c mouse at a density of 3×10^5 cells/mouse. 3LL murine Lewis lung carcinoma was routinely maintained by i.m. passages (every 10-14 days) of 1×10^5 cells/mouse in C57BL/6J mice. For antitumor activity experiments, tumors were excised from donor mice and after mechanical desegregation and enzymatic digestion tumor cell viability was assessed by the trypan blue dye exclusion test. Then, 1×10^5 cells/100 μl/mouse were injected i.m. into the right hind leg muscle of C57BL/6J mice.
# Tumor dimension measurements were performed using a digital calliper (Vernier Caliper) from the day in which the mass became measurable, twice weekly. The tumor mass was assessed from the size of the two principal dimensions (length and breadth), expressed in mm, applying the formula (length×breadth^2)/2 that is, the tumor volume in mm3. For every experimental group the percentage of inhibition of tumor volume (TVI %) was calculated, with respect to that of the control that is (100−(T/C %). TVI was evaluated 2 days after the final administration of ST1926.
# The mean survival time (MST) was also measured and the increase in mean life-span expressed as ILS % (increase of life span) calculated as (MSTT/MSTC)×100−100.
# The comparison between the values of TVI and of survival time, obtained for each group were performed with the non parametric Mann Whitney test for non paired data, using the Instat software from GraphPad inc. […]
# The mice (8 for each group) were weighed prior to each treatment, firstly, so as to be able to administer the correct quantity of substance, based on the eventual variations in weight observed throughout the period of drug administration, and also to be able to register the maximum weight loss throughout the treatment (BWL % max).
smiles,measurement,setting,value
"O=C(O)/C=C/c1ccc(-c2ccc(O)c(C34CC5CC(CC(C5)C3)C4)c2)cc1 [ST1926, E-4-(3-(1-adamantyl)-4-hydroxyphenyl)cinnamic acid]",APOPTOSIS,"[1]; HL-60, 0.0025 μM",8
same,G0/G1,"[1]; HL-60, 0.0025 μM",54.9
same,G2 + M,"[1]; HL-60, 0.0025 μM",11.7
same,S,"[1]; HL-60, 0.0025 μM",33.4
same,APOPTOSIS,"[1]; HL-60, 0.005 μM",14.0
same,G0/G1,"[1]; HL-60, 0.005 μM",53.4
same,G2 + M,"[1]; HL-60, 0.005 μM",12.2
same,S,"[1]; HL-60, 0.005 μM",34.4
same,APOPTOSIS,"[1]; HL-60, 0.01 μM",12.5
same,G0/G1,"[1]; HL-60, 0.01 μM",52.0
same,G2 + M,"[1]; HL-60, 0.01 μM",12.6
same,S,"[1]; HL-60, 0.01 μM",35.4
same,APOPTOSIS,"[1]; HL-60, 0.05 μM",13.0
same,G0/G1,"[1]; HL-60, 0.05 μM",45.0
same,G2 + M,"[1]; HL-60, 0.05 μM",13.0
same,S,"[1]; HL-60, 0.05 μM",42.0
same,APOPTOSIS,"[1]; HL-60, 0.1 μM",27.5
same,G0/G1,"[1]; HL-60, 0.1 μM",39.9
same,G2 + M,"[1]; HL-60, 0.1 μM",13.3
same,S,"[1]; HL-60, 0.1 μM",46.8
same,APOPTOSIS,"[1]; HL-60, 0.5 μM",82
same,APOPTOSIS,"[1]; HL-60, 1 μM",86.5
same,effect on HL-60 cells (in words),"[1]; HL-60, 0.5 and 1 μM, three days, cell cycle not measurable",strong pro-apoptotic effect
same,BWL % Max,[2],7%
same,ILS %,[2],52%
same,MST (range days),[2],*32 (24-42) days

# From patent publication US7449495B2, “Retinoid derivatives with antiangiogenic, antitumoral and proapoptotic activities” (Sigma-Tau Industrie Farmaceutiche Riunite S.p.A., priority 2001, dated 2008)
